# Paper PMC8424644, “Thermodynamic Stability and Speciation of Ga(III) and Zr(IV) Complexes with High-Denticity Hydroxamate Chelators” (Inorganic Chemistry, 2021)
# Read-outs that look alike come from different tables or passages of the source.
# Key:
# [1] = set-up: method as in ref 24 (DFOB), 2 (THPN), 25,58 (3,4,3-LI-HOPO), 25,59 (DTPA); details: (re)calculated from constants of original publications, pH 7.4, cL = 10 μM, cZr(IV) = 1 μM; ref 24 (DFOB), 2 (THPN), 25,58 (3,4,3-LI-HOPO), 25,59 (DTPA); cited from earlier work
# [2] = set-up: method as in PMID 31940188; details: calculations by Holland; cited from earlier work
# [3] = Fe(III)-L + Zr(IV)-NTA metal–metal competition UV–vis titrations; format: physicochemical; details: Fe(III)-DFOB + Zr(IV)-NTA competition
# [4] = set-up: method as in ref 43 (DFOB), 38 (DFOE), 11 (DOTA), 54 (NOTA), 55 (H2hox), 56 (PrP9), 57 (HBED); details: (re)calculated from constants of original publications, pH 7.4, cL = 10 μM, cGa(III) = 1 μM; ref 43 (DFOB), 38 (DFOE), 11 (DOTA), 54 (NOTA), 55 (H2hox), 56 (PrP9), 57 (HBED); cited from earlier work
# [5] = set-up: method as in PMID 11666621; details: acidic range; cited from earlier work
# [6] = cited from earlier work
# [7] = acidic range; cited from earlier work
# [8] = cited from earlier work; for pKa attributed to the deprotonation of a water molecule in the Zr(IV) complex: ref 24 (DFOB), 27 (EDTA)
# [9] = pZr calculation (ligand sequestering ability); format: physicochemical; details: pZr = −log[Zr(IV)free], pH 7.4, cL = 10 μM, cZr(IV) = 1 μM
# Excerpt: (§1) Despite a large variety of PET chelators synthesized and tested in order to provide strong coordination of Ga(III) and Zr(IV) in vivo, until now it is has been hard to avoid the release of these metal ions in the body. Here we report two new Ga(III) and Zr(IV) hydroxamate chelators, designed to achieve an efficient sequestering of these metal ions but also to understand how the cyclization and the introduction of an additional hydroxamate group influences the stability of Zr(IV) complexes. Therefore, it is important to evaluate and compare the Ga(III)- and Zr(IV)-sequestering abilities of H3L1 and H4L2 with those of other chelators. However, the direct comparison of the stability constants of metal complexes is not straightforward, and other tools taking into account all the physicochemical properties of the ligands, i.e. their denticity, coordination modes, and acid–base properties, should be used.[52] In order to reliably compare the chelating abilities of H3L1 and H4L2 toward Ga(III) and Zr(IV) ions, the pM values were calculated. pFe was originally introduced by Raymond for the comparison of iron-siderophore systems;[53] pGa = −log[Ga(III)free] and pZr = −log[Zr(IV)free] were calculated at pH 7.4 with cL = 10 μM and cGa(III)/Zr(IV) = 1 μM (Table 2).
# [10] = pGa calculation (ligand sequestering ability); format: physicochemical; details: pGa = −log[Ga(III)free], pH 7.4, cL = 10 μM, cGa(III) = 1 μM
# Excerpt: as §1
# [11] = pFe calculation (ligand sequestering ability); format: physicochemical; details: pH=7.4, cL=10 μM, metal 1 μM
# Excerpt: Despite a large variety of PET chelators synthesized and tested in order to provide strong coordination of Ga(III) and Zr(IV) in vivo, until now it is has been hard to avoid the release of these metal ions in the body. Here we report two new Ga(III) and Zr(IV) hydroxamate chelators, designed to achieve an efficient sequestering of these metal ions but also to understand how the cyclization and the introduction of an additional hydroxamate group influences the stability of Zr(IV) complexes. Therefore, it is important to evaluate and compare the Ga(III)- and Zr(IV)-sequestering abilities of […] and […] with those of other chelators. […] page 15: 100 100 [ZrL4]+ [ZrL3]+ [ZrL4H ] -1 80 [ZrL3H ] 80 2+ -1 [ZrHL4] […] Experimental section. Ligands' sequestering ability Table S3. pFe values with various synthetic and biological chelators a Ligand pFe Chelating groups and ligands geometry […] 24.3 3 hydroxamate groups in a cyclic arrangement […] 23.3 4 hydroxamate groups in a linear arrangement […] 26.9 3 hydroxamate groups in a cyclic arrangement […] 23.61 3 hydroxamate groups in a linear arrangement […] DFOE 27.73 3 hydroxamate groups in a cyclic arrangement […] protonation and stability constants given in original publications; the hydrolysis constants of Fe(III) ions were taken from the literature14 and are given in the experimental section 15 (also on this page, place not known: […]
# [12] = taken from the literature, cited from earlier work
# [13] = taken from the literature, ref 38 (H3L3), 35 (H3L4), 36,38 (DFOE)
compound,measurement,setting,value
"O=C(NCCCN(CCCCN(CCCNC(=O)c1cccc(=O)n1O)C(=O)c1cccc(=O)n1O)C(=O)c1cccc(=O)n1O)c1cccc(=O)n1O [3,4,3-LI-HOPO]",pZr,[1],"44.0[25],[58]"
O=C1CCN(O)C(=O)CCCNC(=O)CCN(O)C(=O)CCCNC(=O)CCN(O)C(=O)CCCNC(=O)CCN(O)C(=O)CCCN1 [CTH36],log β [Zr(L)] predicted from computational calculations,[2],52.84
CC(=O)N(O)CCCCCNC(=O)CCC(=O)N(O)CCCCCNC(=O)CCC(=O)N(O)CCCCCNC(=O)CCC(=O)N(O)CCCCCN [DFO*],log β [Zr(L)] predicted from computational calculations,[2],51.56
CC(=O)N(O)CCCCCNC(=O)CCC(=O)N(O)CCCCCNC(=O)CCC(=O)N(O)CCCCCN [DFOB],log β [ZrHDFOB],[3]; spectra collected after 1h incubation,45.9
same,log β [ZrHDFOB],[3]; spectra collected after 24h incubation,46.1(2)
same,pGa,[4],21.6[43]
same,pZr,[1],32.2[24]
same,log β [Zr(L)] predicted from computational calculations,[2],41.20
same,pKa of the Th(IV) complex,[5],1.9
same,log Kamine (protonation constant of the amino group),[6],10.97
same,pKa1 (protonation constant of the Ga(III) complex),[7],0.78
same,pKa2 (protonation constant of the Ga(III) complex),[7],1.10
same,log β [ZrH(DFOB)OH],[8],40.04
same,log β [ZrHDFOB],[8]; different ionic strength,47.7
same,pKa attributed to the deprotonation of a water molecule in the Zr(IV) complex,[8],6.36
"O=C1CCC(=O)N(O)CCCCCNC(=O)CCC(=O)N(O)CCCCCNC(=O)CCC(=O)N(O)CCCCCN1 [DFOE, desferrioxamine E, reference compound]",pZr,[9],31.0
same,pGa,[4],25.2[38]
same,log K LH2 (ligand protonation; log K2),[6]; [13],9.42
same,log K LH3 (ligand protonation; log K3),[6]; [13],8.65
same,log K LH (ligand protonation; log K1),[6]; [13],9.89
same,log β LH (ligand protonation),[6]; [13],9.89
"O=C(O)CN1CCN(CC(=O)O)CCN(CC(=O)O)CCN(CC(=O)O)CC1 [DOTA, 1,4,7,10-tetraazacyclododecane-1,4,7,10-tetraacetic acid]",pGa,[4],20.5[11]
O=C(O)CN(CCN(CC(=O)O)CC(=O)O)CCN(CC(=O)O)CC(=O)O [DTPA],pZr,[1],"32.3[25],[59]"
"O=C(O)CN(CCN(CC(=O)O)CC(=O)O)CC(=O)O [EDTA, ethylenediaminetetraacetic acid]",pKa attributed to the deprotonation of a water molecule in the Zr(IV) complex,[8],6.2
Oc1cccc2ccc(CNCCNCc3ccc4cccc(O)c4n3)nc12 [H2hox],pGa,[4],28.4[55]
O=C1CCCCCN(O)C(=O)CCNC(=O)CCCCCN(O)C(=O)CCNC(=O)CCCCCN(O)C(=O)CCN1 [H3L3],pGa,[10],25.4
same,pZr,[9],31.5
same,pFe,[11],26.9
same,log K LH (ligand protonation; log K1),[6]; [13],9.89
same,log β LH (ligand protonation),[6]; [13],9.89
CN(O)C(=O)CCC(=O)NCCOCC(C)(COCCNC(=O)CCC(=O)N(C)O)COCCNC(=O)CCC(=O)N(C)O [H3L4],pGa,[10],21.9
same,pZr,[9],32.6
same,log K LH2 (ligand protonation; log K2),[6]; [13],8.97
same,log K LH3 (ligand protonation; log K3),[6]; [13],8.26
same,log K LH (ligand protonation; log K1),[6]; [13],9.50
same,log β LH2 (ligand protonation),[6]; [13],18.47
same,log β LH3 (ligand protonation),[6]; [13],26.73
same,log β LH (ligand protonation),[6]; [13],9.50
same,log β [FeHL],[12],29.82
same,log β [FeL],"[12]; ref 38 (H3L3), 35 (H3L4), 36,38 (DFOE)",27.34
O=C(O)CN(CCN(CC(=O)O)Cc1ccccc1O)Cc1ccccc1O [HBED],pGa,[4],28.0[57]
O=C(O)CN1CCN(CC(=O)O)CCN(CC(=O)O)CC1 [NOTA],pGa,[4],27.4[54]
O=C(O)CCP(=O)(O)CN1CCN(CP(=O)(O)CCC(=O)O)CCN(CP(=O)(O)CCC(=O)O)CC1 [PrP9],pGa,[4],23.1[56]
